# Assay results taken from patent US20140058103A1, “Inhibitors of PI3K-Delta and Methods of Their Use and Manufacture” (Exelixis, Inc., priority 2010, published 2014).
# Biological target: PI3K delta (Homo sapiens, UniProt O00329)
# Test: Luciferase-coupled chemiluminescence kinase assay (ATP consumption, KinaseGlo)
# Assay type: biochemical
# Experimental: Kinase activity and compound inhibition were investigated using one or more of the assay formats described below. The ATP concentrations used in the various assays were approximately equal to or less than the KM for each of the respective kinases. Dose-response experiments were performed using an intra-plate dilution scheme with 10 different inhibitor concentrations in a 384-well microtiter plate. IC50 values were calculated by nonlinear regression analysis using the four-parameter equation listed below:
# Y=min+(max−min)/(1+(X/IC50)^N) Equation 1
# Typically N should approximate unity. Curve fitting was performed using XLFit or ActivityBase.
# Kinase activity is measured as the percent of ATP consumed following the kinase reaction using luciferase-luciferin-coupled chemiluminescence. […] Kinase reactions were initiated by combining test compounds, kinase, and ATP in a 20 μL volume (6 μL volume for 1536-well plate). The reaction mixture was incubated at ambient temperature for 2 h. Following the kinase reaction, a 20 μL (or […] for 1536-well plate) aliquot of KinaseGlo (Promega) was added and the chemiluminescence signal measured using an EnVision plate reader (Perkin Elmer).
# PI3K delta, sequence (O00329 whole entry): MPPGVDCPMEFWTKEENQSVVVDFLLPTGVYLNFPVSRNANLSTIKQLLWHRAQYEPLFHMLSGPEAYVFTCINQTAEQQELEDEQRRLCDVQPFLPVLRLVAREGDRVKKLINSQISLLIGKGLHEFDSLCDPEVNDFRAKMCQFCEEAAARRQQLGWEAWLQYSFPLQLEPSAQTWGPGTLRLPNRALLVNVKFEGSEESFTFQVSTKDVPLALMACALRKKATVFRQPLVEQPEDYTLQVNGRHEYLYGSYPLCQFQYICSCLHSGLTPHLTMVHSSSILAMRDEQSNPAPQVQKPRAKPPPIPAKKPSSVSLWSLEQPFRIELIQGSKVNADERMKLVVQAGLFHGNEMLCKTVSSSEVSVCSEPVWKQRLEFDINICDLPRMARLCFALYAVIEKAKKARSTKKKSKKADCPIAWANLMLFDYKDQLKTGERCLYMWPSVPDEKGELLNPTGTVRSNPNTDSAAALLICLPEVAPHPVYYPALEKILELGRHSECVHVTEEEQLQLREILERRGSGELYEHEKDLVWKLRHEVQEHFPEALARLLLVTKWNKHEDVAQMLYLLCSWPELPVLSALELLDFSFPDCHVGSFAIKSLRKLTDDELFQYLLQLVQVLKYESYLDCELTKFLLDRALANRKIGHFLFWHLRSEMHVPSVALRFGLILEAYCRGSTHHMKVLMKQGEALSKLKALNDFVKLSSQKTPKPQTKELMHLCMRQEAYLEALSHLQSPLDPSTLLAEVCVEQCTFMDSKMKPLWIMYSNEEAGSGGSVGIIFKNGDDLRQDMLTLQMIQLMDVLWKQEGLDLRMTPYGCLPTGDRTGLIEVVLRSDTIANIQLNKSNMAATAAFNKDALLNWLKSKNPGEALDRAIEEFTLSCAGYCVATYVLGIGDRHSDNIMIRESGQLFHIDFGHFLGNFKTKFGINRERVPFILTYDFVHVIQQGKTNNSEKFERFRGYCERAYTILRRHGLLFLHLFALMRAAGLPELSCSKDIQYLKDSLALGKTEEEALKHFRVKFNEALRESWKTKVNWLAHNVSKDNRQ
# PI3K delta, sequence (P27986 whole entry partner): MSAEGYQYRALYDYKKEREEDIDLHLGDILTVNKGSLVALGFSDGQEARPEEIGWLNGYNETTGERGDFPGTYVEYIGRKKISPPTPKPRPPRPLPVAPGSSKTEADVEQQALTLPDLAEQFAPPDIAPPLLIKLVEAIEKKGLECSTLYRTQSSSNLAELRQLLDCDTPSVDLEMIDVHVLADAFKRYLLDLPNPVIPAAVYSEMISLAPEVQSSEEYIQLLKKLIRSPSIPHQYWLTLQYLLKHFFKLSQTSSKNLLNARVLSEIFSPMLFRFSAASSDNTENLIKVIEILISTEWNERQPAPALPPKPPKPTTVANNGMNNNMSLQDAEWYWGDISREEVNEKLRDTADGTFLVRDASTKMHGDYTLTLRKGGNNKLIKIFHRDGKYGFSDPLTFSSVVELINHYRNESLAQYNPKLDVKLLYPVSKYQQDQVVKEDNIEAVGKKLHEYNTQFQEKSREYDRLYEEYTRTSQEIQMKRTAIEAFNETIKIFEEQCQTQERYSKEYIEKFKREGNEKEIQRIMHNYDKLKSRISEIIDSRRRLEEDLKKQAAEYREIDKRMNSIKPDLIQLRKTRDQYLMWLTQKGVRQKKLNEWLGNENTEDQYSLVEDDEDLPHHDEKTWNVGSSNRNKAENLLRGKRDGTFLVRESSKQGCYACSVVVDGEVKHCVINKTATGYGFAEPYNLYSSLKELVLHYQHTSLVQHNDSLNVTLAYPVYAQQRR
row,Structure (SMILES),IC50 [nM]
1,"Cn1c(C(=O)NCC2CCC2)nc2c(N3CCC4(CC3)C(=O)Nc3ccccc34)ncnc21 [Compound 89, N-(cyclobutylmethyl)-9-methyl-6-(2-oxo-1,2-dihydro-1′H-spiro[indole-3,4′-piperidin]-1′-yl)-9H-purine-8-carboxamide]",50 to 250
2,"Cn1c(C(=O)NCC2CC2)nc2c(N3CCC4(CC3)C(=O)Nc3c(Cl)cccc34)ncnc21 [Compound 211, 6-(7-chloro-2-oxo-1,2-dihydro-1′H-spiro[indole-3,4′-piperidin]-1′-yl)-N-(cyclopropylmethyl)-9-methyl-9H-purine-8-carboxamide]",< 50
3,"CCn1c(C(=O)NC(C)C)nc2c(N3CCC4(CC3)C(=O)Nc3ccccc34)ncnc21 [Compound 223, 9-ethyl-N-(1-methylethyl)-6-(2-oxo-1,2-dihydro-1′H-spiro[indole-3,4′-piperidin]-1′-yl)-9H-purine-8-carboxamide]",< 50
4,"CCCCNC(=O)c1nc2c(N3CCC(n4c(=O)[nH]c5ccccc54)CC3)ncnc2n1CC [Compound 157, N-butyl-9-ethyl-6-[4-(2-oxo-2,3-dihydro-1H-benzimidazol-1-yl)piperidin-1-yl]-9H-purine-8-carboxamide]",50 to 250
5,"Cn1c(C(=O)N2CCCC2)nc2c(N3CCC4(CC3)C(=O)NCN4c3ccccc3)ncnc21 [Compound 8, 8-[9-methyl-8-(pyrrolidin-1-ylcarbonyl)-9H-purin-6-yl]-1-phenyl-1,3,8-triazaspiro[4.5]decan-4-one]",250 to 500
6,"COC(=O)C1(c2ccccc2)CCN(c2ncnc3c2nc(-c2cnn(C)c2)n3C)CC1 [Compound 274, methyl 1-[9-methyl-8-(1-methyl-1H-pyrazol-4-yl)-9H-purin-6-yl]-4-phenylpiperidine-4-carboxylate]",500 to 1500
7,"Cn1c(C(=O)NCc2ccncc2)nc2c(N3CCC4(CC3)C(=O)Nc3ccccc34)ncnc21 [Compound 22, 9-methyl-6-(2-oxo-1,2-dihydro-1′H-spiro[indole-3,4′-piperidin]-1′-yl)-N-(pyridin-4-ylmethyl)-9H-purine-8-carboxamide]",50 to 250
8,"CCCNC(=O)c1nc2c(N3CCC(n4c(=O)[nH]c5ccccc54)CC3)ncnc2n1CC [Compound 193, 9-ethyl-6-[4-(2-oxo-2,3-dihydro-1H-benzimidazol-1-yl)piperidin-1-yl]-N-propyl-9H-purine-8-carboxamide]",< 50
9,"Cn1c(C(=O)N2CC(O)C2)nc2c(N3CCC(n4c(=O)[nH]c5ccccc54)CC3)ncnc21 [Compound 74, 1-(1-{8-[(3-hydroxyazetidin-1-yl)carbonyl]-9-methyl-9H-purin-6-yl}piperidin-4-yl)-1,3-dihydro-2H-benzimidazol-2-one]",50 to 250
10,"CCn1c(-c2ccc(C(F)(F)F)nc2)nc2c(N3CCC(n4c(=O)[nH]c5ccccc54)CC3)ncnc21 [Compound 314, 1-(1-{9-ethyl-8-[6-(trifluoromethyl)pyridin-3-yl]-9H-purin-6-yl}piperidin-4-yl)-1,3-dihydro-2H-benzimidazol-2-one]",< 50
11,"CNC(=O)c1nc2c(N3CCC(n4c(=O)[nH]c5ccccc54)CC3)ncnc2n1C [Compound 91, N,9-dimethyl-6-[4-(2-oxo-2,3-dihydro-1H-benzimidazol-1-yl)piperidin-1-yl]-9H-purine-8-carboxamide]",500 to 1500
12,"CCNC(=O)c1nc2c(N3CCC(n4c(=O)[nH]c5ccccc54)CC3)ncnc2n1C [Compound 62, N-ethyl-9-methyl-6-[4-(2-oxo-2,3-dihydro-1H-benzimidazol-1-yl)piperidin-1-yl]-9H-purine-8-carboxamide]",50 to 250
13,"Cn1c(C(=O)NCc2cccc(F)c2)nc2c(N3CCC4(CC3)C(=O)Nc3ccccc34)ncnc21 [Compound 28, N-[(3-fluorophenyl)methyl]-9-methyl-6-(2-oxo-1,2-dihydro-1′H-spiro[indole-3,4′-piperidin]-1′-yl)-9H-purine-8-carboxamide]",250 to 500
14,"CCc1nnc(-c2nc3c(N4CCC5(CC4)C(=O)Nc4ccccc45)ncnc3n2C)o1 [Compound 182, 1′-[8-(5-ethyl-1,3,4-oxadiazol-2-yl)-9-methyl-9H-purin-6-yl]spiro[indole-3,4′-piperidin]-2(1H)-one]",< 50
15,"CCn1c(-c2nnc(C3CC3)o2)nc2c(N3CCC4(CC3)C(=O)Nc3ccccc34)ncnc21 [Compound 210, 1′-[8-(5-cyclopropyl-1,3,4-oxadiazol-2-yl)-9-ethyl-9H-purin-6-yl]spiro[indole-3,4′-piperidin]-2(1H)-one]",< 50
16,"COc1ccc(CNC(=O)c2nc3c(N4CCC5(CC4)C(=O)Nc4ccccc45)ncnc3n2C)cc1 [Compound 29, 9-methyl-N-([4-(methyloxy)phenyl]methyl)-6-(2-oxo-1,2-dihydro-1′H-spiro[indole-3,4′-piperidin]-1′-yl)-9H-purine-8-carboxamide]",500 to 1500
17,"Cn1c(C(=O)NCCc2ccccn2)nc2c(N3CCC4(CC3)C(=O)Nc3ccccc34)ncnc21 [Compound 21, 9-methyl-6-(2-oxo-1,2-dihydro-1′H-spiro[indole-3,4′-piperidin]-1′-yl)-N-(2-pyridin-2-ylethyl)-9H-purine-8-carboxamide]",500 to 1500

# Further lines, results first:
row,IC50 [nM],Structure (SMILES)
1,500 to 1500,"Cn1c(C(=O)NCC2CC2)nc2c(N3CCC(n4c(=O)[nH]c5ccc(Cl)cc54)CC3)ncnc21 [Compound 229, 6-[4-(6-chloro-2-oxo-2,3-dihydro-1H-benzimidazol-1-yl)piperidin-1-yl]-N-(cyclopropylmethyl)-9-methyl-9H-purine-8-carboxamide]"
2,50 to 250,"Cn1c(C(=O)NCC2CC2)nc2c(N3CCC4(CC3)C(=O)Cc3ccccc34)ncnc21 [Compound 120, N-(cyclopropylmethyl)-9-methyl-6-(2-oxo-2,3-dihydro-1′H-spiro[indene-1,4′-piperidin]-1′-yl)-9H-purine-8-carboxamide]"
3,50 to 250,"Cn1c(C(=O)NCC2(O)CC2)nc2c(N3CCC(n4c(=O)[nH]c5ccccc54)CC3)ncnc21 [Compound 12, N-[(1-hydroxycyclopropyl)methyl]-9-methyl-6-[4-(2-oxo-2,3-dihydro-1H-benzimidazol-1-yl)piperidin-1-yl]-9H-purine-8-carboxamide]"
4,< 50,"CCn1c(C(=O)NCC2CCOCC2)nc2c(N3CCC4(CC3)C(=O)Nc3ccccc34)ncnc21 [Compound 161, 9-ethyl-6-(2-oxo-1,2-dihydro-1′H-spiro[indole-3,4′-piperidin]-1′-yl)-N-(tetrahydro-2H-pyran-4-ylmethyl)-9H-purine-8-carboxamide]"
5,250 to 500,"CCCCCCNC(=O)c1nc2c(N3CCC(n4c(=O)[nH]c5ccccc54)CC3)ncnc2n1C [Compound 71, N-hexyl-9-methyl-6-[4-(2-oxo-2,3-dihydro-1H-benzimidazol-1-yl)piperidin-1-yl]-9H-purine-8-carboxamide]"
6,500 to 1500,"Cc1ccccc1CNC(=O)c1nc2c(N3CCC4(CC3)C(=O)Nc3ccccc34)ncnc2n1C [Compound 27, 9-methyl-N-[(2-methylphenyl)methyl]-6-(2-oxo-1,2-dihydro-1′H-spiro[indole-3,4′-piperidin]-1′-yl)-9H-purine-8-carboxamide]"
7,50 to 250,"Cn1c(C(=O)NCC2CC2)nc2c(N3CCC(N4c5ccccc5NS4(=O)=O)CC3)ncnc21 [Compound 133, N-(cyclopropylmethyl)-6-[4-(2,2-dioxido-2,1,3-benzothiadiazol-1(3H)-yl)piperidin-1-yl]-9-methyl-9H-purine-8-carboxamide]"
8,< 50,"CC(C)Cc1nnc(-c2nc3c(N4CCC(n5c(=O)[nH]c6ccccc65)CC4)ncnc3n2C)o1 [Compound 204, 1-(1-{9-methyl-8-[5-(2-methylpropyl)-1,3,4-oxadiazol-2-yl]-9H-purin-6-yl}piperidin-4-yl)-1,3-dihydro-2H-benzimidazol-2-one]"
9,50 to 250,"Cc1nnc(-c2nc3c(N4CCC(n5c(=O)[nH]c6ccccc65)CC4)ncnc3n2C)n1C [Compound 332, 1-{1-[8-(4,5-dimethyl-4H-1,2,4-triazol-3-yl)-9-methyl-9H-purin-6-yl]piperidin-4-yl}-1,3-dihydro-2H-benzimidazol-2-one]"
10,50 to 250,"Cn1c(C(=O)NC2CCC(F)(F)CC2)nc2c(N3CCC(n4c(=O)[nH]c5ccccc54)CC3)ncnc21 [Compound 107, N-(4,4-difluorocyclohexyl)-9-methyl-6-[4-(2-oxo-2,3-dihydro-1H-benzimidazol-1-yl)piperidin-1-yl]-9H-purine-8-carboxamide]"
11,< 50,"Cc1c(-c2nc3c(N4CCC5(CC4)C(=O)Nc4ccccc45)ncnc3n2C)cnn1C [Compound 246, 1′-[8-(1,5-dimethyl-1H-pyrazol-4-yl)-9-methyl-9H-purin-6-yl]spiro[indole-3,4′-piperidin]-2(1H)-one]"
12,< 50,"CCn1c(C(=O)NC2COC2)nc2c(N3CCC4(CC3)C(=O)Nc3ccccc34)ncnc21 [Compound 226, 9-ethyl-N-oxetan-3-yl-6-(2-oxo-1,2-dihydro-1′H-spiro[indole-3,4′-piperidin]-1′-yl)-9H-purine-8-carboxamide]"
13,250 to 500,"CN(C)CCOc1cccc2c1[nH]c(=O)n2C1CCN(c2ncnc3c2nc(C(=O)NCC2CC2)n3C)CC1 [Compound 276, N-(cyclopropylmethyl)-6-[4-(4-{[2-(dimethylamino)ethyl]oxy}-2-oxo-2,3-dihydro-1H-benzimidazol-1-yl)piperidin-1-yl]-9-methyl-9H-purine-8-carboxamide]"
14,50 to 250,"Cn1c(C(=O)N2CCC(F)(F)C2)nc2c(N3CCC(n4c(=O)[nH]c5ccccc54)CC3)ncnc21 [Compound 108, 1-(1-{8-[(3,3-difluoropyrrolidin-1-yl)carbonyl]-9-methyl-9H-purin-6-yl}piperidin-4-yl)-1,3-dihydro-2H-benzimidazol-2-one]"
